{"source": "patent US7842683B2", "about": "“Neurotherapeutic compositions and method” (Revaax Pharmaceuticals, LLC, priority 1999, dated 2010)", "key": {"[1]": {"conditions": "cited from earlier work"}, "bacteria": {"system": "bacteria", "conditions": "cited from earlier work"}, "Male Wistar rats": {"system": "Male Wistar rats", "assay": "Elevated plus-maze (anxiolytic activity)", "format": "in vivo, rat"}, "male hamsters [2]": {"system": "male hamsters", "assay": "Radial arm maze (spatial memory)", "format": "in vivo", "conditions": "50 μg/kg", "source_text": "The radial arm maze is one of the most commonly used methods for testing spatial learning and memory in rodents. Developed by Olton and co-workers (1976), it provides the simultaneous choice of several alternative paths for the test subject. Animals must learn which locations provide food (place learning) using visuospatial cues. Experimental Trials: The experimental trials consist of three phases (described below). The arms of the maze are numbered clock-wise from one to seven with arm number one being the arm furthest to the right side of the maze. All trials are […]. When not being tested, all hamsters have unlimited access to water. […] Trials within all the phases are conducted on successive days. Phase One: Phase One consists of five 15 min trials. Prior to the beginning of each of the five trials in Phase One, four sunflower seeds are placed at the ends of arms one, two, and three. Arms four, five, six, and seven remain empty. Phase Two: Phase Two of the experimental trials are identical to Phase One except that the seeds are placed in arms two, four, and seven. […] Coding of Behaviors: An arm entry was scored if all four paws of a hamster crossed an arm threshold. A full arm entry into an arm is scored if a hamster's snout touches the top of the block at the end of an arm or if their snout passes the block. […] In addition, the number of seeds pouched by the hamsters was scored. […]"}, "[3]": {"system": "adolescent male rhesus macaques", "assay": "Social behavior in non-human primates", "format": "in vivo", "conditions": "1 mg/kg IM", "description": "Eight, two year old adolescent male rhesus macaques were tested with Mox. Animals were raised with their mothers in a group setting at a field station. At one year of age, they were transferred to individual cages. Each day thereafter, they were paired housed for two-three hrs. The adolescent partners were always the same. […] The display of social behaviors in this arrangement are very robust because of the limited amount of time the monkeys spend together. During the experiment the monkeys were paired in the “play-cage” where they were video taped for one hour. The study was designed so that behavioral data were obtained for each monkey under Mox and vehicle treatment. The treatment was an ABA type schedule of administration: Day 1—one member of each pair received 0.9% NaCl vehicle, Day 2—drug, Day 3—vehicle. Only one member of a pair was injected on a test day. The other member of a pair was injected a week later according to the same ABA schedule. […] Animals were video taped sixty minutes after injection for a one hr observation period. Animals were scored for over forty different behaviors (Winslow et al., 1988). Only twenty-eight are listed on TABLE I. The unreported behaviors, e.g., self-bites, vocalizations, clinging, mounts, escapes, self grooming were so infrequent that they were omitted from the analysis. Paired t-test was run for each behavioral measure."}, "[4]": {"conditions": "cited from earlier work", "remark": "listed apart in the source"}, "hamsters": {"system": "hamsters", "assay": "Olfactory discrimination: latency to find hidden sunflower seeds", "format": "in vivo, Syrian golden hamsters (Mesocricetus auratus)", "conditions": "50 μg/kg", "description": "Sixteen animals were treated with vehicle or 50 μg/kg Mox and tested for olfactory discrimination by measuring their latency to find hidden sunflower seeds (FIG. 5). The injections were counterbalanced with each animal receiving each treatment. Prior to testing animals were fasted for 24 hrs. Ninety minutes after injection animals were briefly taken from their home cage while six sunflower seeds were buried under the bedding in one corner. Animals were placed back into their home cage and scored for the latency to find the seeds in a ten min observation period. […] In fact, not one of the sixteen animals consumed all of the seeds following saline as compared to all animals treated with Mox.\nSix animals received an intracerebroventricular injection of vehicle or 1 mg/kg PPP and tested for olfactory discrimination by measuring their latency to find hidden sunflower seeds (FIG. 16). The injections were counterbalanced with each animal receiving each treatment. Prior to testing animals were fasted for 24 hrs. Sixty min. After injection animals were briefly taken from their home cage while six sunflower seeds were buried under the bedding in one corner. Animals were placed back into their home cage and scored for the latency to find the seeds in a five min. Observation period."}, "vasopressin V1A receptor": {"system": "vasopressin V1A receptor", "assay": "Membrane binding assay, competition for I125 HO-LVA", "conditions": "1 μM, hamster liver membrane preparation", "source_text": "(§1) Vasopressin and serotonin are both critical neurotransmitters in the control of offensive aggression in male hamsters (Ferris et al., 1998). These two neurotransmitters also are implicated in the control of human aggression (Coccaro et al., 1998). Vasopressin facilitates aggressive behavior while serotonin inhibits aggression, in part, by inhibiting the activity of the vasopressin system. Blockade of vasopressin V1A receptors and stimulation of serotonin 5HT1A receptors in the anterior hypothalamus blocks offensive aggression (Ferris et al., 1999). […] To test this notion Mox was tested in a membrane binding assay for competition for the V1A receptor (Ferris et al., 1994) and in a receptor autoradiography assay for competition for the 5HT1A receptors (Ferris et al., 1999)."}, "[5]": {"system": "serotonin 5HT1A receptors", "assay": "Receptor autoradiography, competition for I125 DPAT", "format": "binding", "conditions": "tissue sections of the hamster brain", "source_text": "as §1"}, "male hamsters [6]": {"system": "male hamsters", "assay": "Sexual activity toward a receptive female", "format": "in vivo, golden hamsters", "conditions": "50 μg/kg, 90 min", "description": "Six animals were tested over a five min observation period for sexual activity following treatment with saline vehicle or 50 μg/kg Mox (FIG. 6). The study was counter balanced with each animal receiving each treatment. Ninety min after injection, animals were scored for latency to mount and number of intromissions, i.e., bouts of copulation, toward a receptive female placed into their home cage. Female golden hamsters were ovariectomized under general anesthesia. Following recovery animals were treated with a single SC injection of […] estradiol benzoate for three consecutive days to induce sexual receptivity. On the day of testing the estrogen primed females were introduced into the home cage of the experimental males. […] Lordosis, is a stereotyped posture characterized by intense, sustained vertebral dorsiflexion."}}, "note": "Several values for one entry are separate records, joined by “and”; a condition that tells them apart may be missing. Equal entries are not always repeated. Where two headings read alike, the source gives them in different places."}
{"smiles": "O=C(O)[C@H]1/C(=C/CO)O[C@@H]2CC(=O)N21", "note": "[CLAV, Clavulanic acid]", "values": [{"measurement": "CSF/plasma ratio", "setting": "[1]; in vivo", "value": "around 0.25"}, {"measurement": "elimination half-life", "setting": "[1]; in vivo", "value": "under two"}, {"measurement": "plasma half-life", "setting": "[1]; in vivo", "value": "over 2 hrs"}, {"measurement": "volume of distribution", "setting": "[1]; in vivo", "value": "around 15 liters"}, {"measurement": "bioavailability", "setting": "[1]; oral", "value": "64 to 75", "unit": "%"}, {"measurement": "antibacterial activity", "setting": "bacteria", "value": "weak antibacterial activity"}, {"measurement": "effective dose, times less than CDP", "setting": "Male Wistar rats; CLAV 100 ng/kg vs CDP 10 mg/kg", "value": "100,000 times"}, {"measurement": "open arm entries", "setting": "Male Wistar rats; daily IP for seven days: CLAV 100 ng/kg, CDP 10 mg/kg", "value": "no significant difference"}]}
{"smiles": "CO[C@@]1(NC(=O)C(C(=O)O)c2ccc(O)cc2)C(=O)N2C(C(=O)O)=C(CSc3nnnn3C)CO[C@@H]21", "note": "(stereo partly drawn) [Mox, 7-β-[2-carboxy-2-(4-hydroxyphenyl)acetamido]-7α-methoxy-3-[[(1-methyl-1H-tetrazol-5-yl)thio]methyl]-1-oxa-1-dethia-3-cephem-4-carboxylic acid]", "values": [{"measurement": "number of seeds discovered after reversing the orientation of the maze", "setting": "male hamsters [2]", "value": "significantly increased"}, {"measurement": "allogrooming", "setting": "[3]", "value": "no effect"}, {"measurement": "duration of play fighting", "setting": "[3]; sixty minutes after injection, one hr observation", "value": "significantly reduced"}, {"measurement": "accumulation with multiple injections", "setting": "[4]; 8-12 hr intervals", "value": "no accumulation"}, {"measurement": "elimination half-life", "setting": "[4]; IM injection", "value": 2.3, "unit": "h"}, {"measurement": "time of peak plasma concentrations", "setting": "[4]; after IM injection", "value": "one"}, {"measurement": "CSF concentration as a percentage of serum concentration", "setting": "[4]; human, in vivo", "value": "20% and 15-20%"}, {"measurement": "time to consume all seeds", "setting": "hamsters", "value": "less than five"}, {"measurement": "latency to find the seed", "setting": "hamsters; 90 min, fasted 24 hrs", "value": "significantly (p<0.001) reduced"}, {"measurement": "displacement of I125 HO-LVA binding", "setting": "vasopressin V1A receptor", "value": "did not significantly displace"}, {"measurement": "reduction of specific binding of I125 DPAT", "setting": "[5]", "value": "ineffective"}, {"measurement": "intromission rate", "setting": "male hamsters [6]", "value": "trend toward a decreased intromission rate"}, {"measurement": "time to mount", "setting": "male hamsters [6]; five min observation", "value": "significantly increased"}]}
